Experimental findings from patent publication US10106523B2, “Amide compound” (ASTELLAS PHARMA INC., priority 2014, dated 2018) are described below.

The target in one test is T1, human EP4 receptor (Homo sapiens, UniProt P35408).
T1 construct: purchased Chemicon
Description: Evaluation test of human EP4 receptor affinity ([3H]PGE2 binding, membrane fraction). Conditions: 2.9 nmol/L [3H]PGE2, human EP4 cell membrane fraction, 25° C. 60 minutes; read-out: Ki value with respect to the human EP4 receptor. On the procedure:
Test Example 2: Evaluation Test of Human EP4 Receptor Affinity
[^3H]PGE2 and a human EP4 cell membrane fraction (Chemicon) were diluted with an assay buffer (50 mmol/L HEPES-NaOH, 5 mmol/L MgCl2, 1 mmol/L CaCl2 (pH 7.4), 0.5% bovine serum albumin (BSA)), and the test compound and unlabeled PGE2 (Sigma) were diluted with DMSO and the assay buffer. The composition of the reaction liquid (250 μL) was set to be as follows: 175 μL of an assay buffer containing [^3H]PGE2 (final concentration of 2.9 nmol/L), 50 μL of a membrane fraction (Chemicon, 40 μg protein/mL), and 25 μL of a test compound (final concentrations of 0.1, 1, 10, 100, and 1000 nmol/L). For the measurement of the non-specific binding, the unlabeled PGE2 was added to a final concentration of 10 μmol/L. The final concentration of DMSO was set to 1%. The reaction liquid was incubated at 25° C. for 60 minutes. The reaction liquid was filtered with a GF/C filter paper (Whatman), using a cell harvester (Brandel). The filter paper after filtration was washed three times with 1 mL of a solution containing 50 mmol/L HEPES-NaOH (pH 7.4), 500 mmol/L NaCl, and 0.1% BSA. […] The radioactive activity was measured using a liquid scintillation counter (Perkin Elmer). […] The specific binding amount was determined by subtracting the non-specific binding amount from the total binding amount. The Ki value was calculated according to a standard method.

For another test, the target named is rat EP4 receptor (Rattus norvegicus, UniProt P43114). Description: Evaluation test of rat EP4 receptor affinity ([3H]PGE2 binding, membrane fraction of HEK-293 cells). Conditions: 0.3 nmol/L [3H]PGE2, rat EP4 cell membrane fraction, room temperature 1 hour; read-out: Ki value with respect to the rat EP4 receptor. Also on record: expressed in transfected cells; host or cells: HEK-293 (ATCC CRL-1573), transient. On the procedure: Test Example 1: Evaluation Test of Rat EP4 Receptor Affinity
Construction of Rat EP4 Receptor Expressing Vector:
A rat EP4 receptor gene (GenBank accession No.: NM_032076.1) was transfected into an expression vector pcDNA3.1-V5-His-TOPO (Invitrogen Inc.).
Transient Expression of Rat EP4 Receptor:
The expression vector of a rat EP4 receptor was transfected into an HEK-293 cell (ATCC No.: CRL-1573). The transfection was carried out according to an appended instruction, using Lipofectoamine (registered trademark) 2000 reagent (Invitrogen Inc.). After the transfection, the cells were cultured in an α-MEM culture medium for 20 to 24 hours.
Preparation of Membrane Fraction:
The culture medium was removed by aspiration, 10 mL of cooled phosphate buffered saline (PBS) was added thereto per 15 cm dish, and the cells were scraped using a cell scraper (Sumitomo Bakelite). […]
[^3H]PGE2 and a cell membrane fraction were diluted with an assay buffer (50 mmol/L HEPES-NaOH, 10 mmol/L MgCl2, pH 7.5), and the test compound and unlabeled PGE2 (Cayman) were diluted with DMSO and the assay buffer. […] The radioactivity was measured using a TopCount (Perkin Elmer). […] The specific binding amount was determined by subtracting the non-specific binding amount from the total binding amount. The Ki value was calculated according to a standard method.

Broadly, the Ki is a measure of affinity in units of concentration, obtained from inhibition or displacement.

T1 sequence (P35408 whole entry): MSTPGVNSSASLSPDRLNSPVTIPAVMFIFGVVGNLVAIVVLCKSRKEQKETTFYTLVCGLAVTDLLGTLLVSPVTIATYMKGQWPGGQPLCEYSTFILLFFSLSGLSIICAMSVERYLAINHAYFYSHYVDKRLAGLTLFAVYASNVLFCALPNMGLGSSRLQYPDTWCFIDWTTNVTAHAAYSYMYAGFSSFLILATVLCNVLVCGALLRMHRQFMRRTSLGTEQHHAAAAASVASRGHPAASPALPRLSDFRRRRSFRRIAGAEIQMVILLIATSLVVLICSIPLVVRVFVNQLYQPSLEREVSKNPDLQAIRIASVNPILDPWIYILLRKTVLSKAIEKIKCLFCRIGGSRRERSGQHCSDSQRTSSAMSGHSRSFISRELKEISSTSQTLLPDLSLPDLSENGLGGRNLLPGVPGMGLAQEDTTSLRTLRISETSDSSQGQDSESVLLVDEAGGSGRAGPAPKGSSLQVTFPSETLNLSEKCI
Sequence of rat EP4 receptor (P43114 whole entry): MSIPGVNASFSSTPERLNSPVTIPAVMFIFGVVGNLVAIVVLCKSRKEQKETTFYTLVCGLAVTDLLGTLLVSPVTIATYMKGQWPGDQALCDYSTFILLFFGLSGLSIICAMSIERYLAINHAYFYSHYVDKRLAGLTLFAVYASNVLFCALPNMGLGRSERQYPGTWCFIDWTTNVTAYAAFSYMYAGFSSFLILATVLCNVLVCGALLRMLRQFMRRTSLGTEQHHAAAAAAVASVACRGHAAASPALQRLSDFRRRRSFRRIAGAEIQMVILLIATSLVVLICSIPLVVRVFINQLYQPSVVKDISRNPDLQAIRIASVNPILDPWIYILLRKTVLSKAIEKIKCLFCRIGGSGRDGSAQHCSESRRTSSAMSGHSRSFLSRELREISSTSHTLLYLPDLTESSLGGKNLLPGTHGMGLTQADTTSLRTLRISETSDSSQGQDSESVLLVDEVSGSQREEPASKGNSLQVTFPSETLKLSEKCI

Turning to `Cc1nn(Cc2cc3ccccc3cn2)c(C(=O)N[C@@H](C)c2ccc(C(=O)O)cc2)c1Br` [Compound A, 4-[(1S)-1-({[4-bromo-1-(isoquinolin-3-ylmethyl)-3-methyl-1H-pyrazol-5-yl]carbonyl}amino)ethyl]benzoic acid], the Ki on human EP4 receptor worked out at 1.46 nM; on rat EP4 receptor, 0.874 nM.
